Test results reported in patent US4191780A, “Bromhexine derivatives and process for making same” (priority 1978, dated 1980).
“Also recorded” adds a separate entry of the source.

What was measured:
[1] = Eight-day toxicity studies in mice, lethality (i.p.); assay type: in vivo; settings: for Total number of deaths: 8 days
Excerpt: Eight-day toxicity studies of IFT 1026 and Bromhexine in mice.

[2] = Long-term toxicity in rats (16 weeks): mean body weight; assay type: in vivo
Excerpt: Effect of daily oral administration of various doses of
IFT 1026 and Bromhexine on mean body weight of rats.

[3] = Long-term toxicity in rats: hematological parameters; assay type: in vivo, rat; settings: daily oral Bromhexine 250 mg/kg, IFT 1026 350 mg/kg
Experimental: The hematological and biochemical values relating to the groups under treament with the above reported doses are shown in Tables Nos. 4 and 5. These values are virtually the same for both treated and control animals.
Effect of daily oral administration of Bromhexine 250 mg/kg
and IFT 1026 350 mg/kg on the hematological parameters in […]

[4] = Long-term toxicity in rats: biochemical parameters; assay type: in vivo, rat; settings: daily oral 250 mg/kg Bromhexine, 350 mg/kg IFT 1026
[5] = Bromsulphtalein (BSP) clearance in rats treated with the lower dose; assay type: in vivo; settings: 30 min after 50 mg/kg BSP i.v., lower dose of drug
Experimental: The possibility to use BSP for the diagnosis of lesions in liver parenchyma is well known. Bromsulphtalein (BSP) clearance was made according to Carpi and Parenti (Carpi, C. and M. A. Parenti, Il Farmaco, Ed. Pr. vol. 17, page 45, 1962). Thirty minutes after the i.v. administration of 50 mg/kg BSP to control rats, the mean plasma level of the dyestuff is 80±12 mcg/ml.
% of rate showing BSP plasma levels greater than 80 mcg/ml
(control values) and 160 mcg/ml (two-fold control values)

[6] = Long-term toxicity in rats: organ weights at necropsy; assay type: in vivo; settings: fresh weight, daily oral 250 mg/kg Bromhexine, 350 mg/kg IFT 1026
Experimental: Effect of daily oral administration of 250 mg/kg Bromhexine and 350 mg/kg
organ weights of rats, expressed as grams of fresh weight.

[7] = Long-term toxicity in rats: mortality, pathology and general state
Experimental: Long-term toxicity (16 weeks) of IFT 1026 is tested in comparison to the parent compound (Bromhexine).

[8] = system: Pain induced by a chemical stimulus; experiment: Siegmund Test: pain induced by a chemical stimulus (acetic acid writhing); assay type: in vivo, mice; settings: mouse, 300 mg/kg oral
Experimental: (§1) Two test methods are used for establishing the action of Bromhexine and IFT 1026 on noci-ceptive stimuli in mice.
(§2) (a) Pain induced by a chemical stimulus according to the method of Siegmund (Siegmund E., Cadmier, R., and Lu, G. Proc. Soc. exp. Biol. N.Y. 95, 729--1957). The mice distributed at random into groups of 10 animals, are deprived of solid food for the 18-hour period prior to the test. […] Thirty minutes after treatment the mice are injected i.p. with 0.1 ml/10 g of a 1.5% acetic acid solution. The writhing is recorded for a 20 min. period following this i.p. injection.

[9] = system: Pain induced by a physical stimulation; experiment: Hot-plate Test (Eddy and Leimbach): pain induced by a physical stimulation; assay type: in vivo, mice; settings: mouse, 300 mg/kg oral, plate at 57° C.
Experimental: as §1
(§3) (b) Pain induced by a physical stimulation according to the hot-plate test technique by Eddy and Leimbach (Eddy, N. B. and Leimbach, O., J. Pharmacol. exp.Ther. 107, 383--1953). The temperature of the plate was kept at 57° C. Groups of 12 mice are treated as described under (a) above. The reaction times are measured 15 min. before treatment (Ro) and 4 times after the administration (every 15 min). Only the maximal response is taken into account (Rmax).

[10] = system: Cough elicited by 15% citric acid spray; experiment: Antitussive activity in mice, citric acid spray cough; assay type: in vivo; settings: Mus musculus, oral, 1 hour after administration, confidence limits P = 0.05
Experimental: (§4) (6) Antitussive effect in Guinea-pigs and mice
(§5) Cough is elicited by 15% citric acid spray in both species, according to the method by Harsany et al. (Boll. Chim. Farm. 112, 691, 1973). The effect was tested 1 hour after oral administration and 30 min. after intraperitoneal application of the antitussive agents on mice and Guinea-pigs respectively.
(§6) ED50 values of the drugs are computed by the method of Litchfield and Wilcoxon (Litchfield, J. T. Jr., and Wilcoxon F., J. Pharmacol. exp. Ther. 96,99--1949).

[11] = system: Cough elicited by 15% citric acid spray; experiment: Antitussive activity in Guinea-pigs, citric acid spray cough; assay type: in vivo; settings: Cavia porcellus, ip, 0.5 h, intraperitoneal, 30 min. after application, confidence limits P = 0.05
Experimental: as §4, §5, §6

noci-ceptive stimuli = experiment: Study of analgesic action on mice (both tests); assay type: in vivo; settings: 300 mg/kg oral
Experimental: as §1, §2, §3

## COc1ccccc1OCC(=O)Nc1c(Br)cc(Br)cc1CN(C)C1CCCCC1 [IFT 1026, N-(2-guaiacol-glycolyl-amino-3,5-dibromobenzyl)N-cyclohexylmethylamine]
[1]; daily dose 450 mg/k
  Number of deaths at day 3: 1
  Total number of deaths: 1/10
[1]; daily dose 900 mg/k
  Number of deaths at day 2: 1
  Total number of deaths: 1/10
[2]; females, 70 mg/kg daily oral, 0 days
  body weight, mean ± SE: 125 ± 6 g
[2]; females, 70 mg/kg daily oral, 21 days
  body weight, mean ± SE: 181 ± 5 g
[2]; females, 70 mg/kg daily oral, 45 days
  body weight, mean ± SE: 218 ± 2 g
[2]; females, 70 mg/kg daily oral, 60 days
  body weight, mean ± SE: 242 ± 2 g
[2]; females, 350 mg/kg daily oral, 0 days
  body weight, mean ± SE: 118 ± 2 g
[2]; females, 350 mg/kg daily oral, 21 days
  body weight, mean ± SE: 179 ± 5 g
[2]; females, 350 mg/kg daily oral, 45 days
  body weight, mean ± SE: 225 ± 7 g
[2]; females, 350 mg/kg daily oral, 60 days
  body weight, mean ± SE: 232 ± 10 g
[2]; females, 1400 mg/kg daily oral, 0 days
  body weight, mean ± SE: 122 ± 5 g
[2]; females, 1400 mg/kg daily oral, 21 days
  body weight, mean ± SE: 173 ± 7 g
[2]; females, 1400 mg/kg daily oral, 45 days
  body weight, mean ± SE: 211 ± 5 g
[2]; females, 1400 mg/kg daily oral, 60 days
  body weight, mean ± SE: 221 ± 8 g
[2]; males, 70 mg/kg daily oral, 0 days
  body weight, mean ± SE: 117 ± 7 g
[2]; males, 70 mg/kg daily oral, 21 days
  body weight, mean ± SE: 220 ± 4 g
[2]; males, 70 mg/kg daily oral, 45 days
  body weight, mean ± SE: 310 ± 4 g
[2]; males, 70 mg/kg daily oral, 60 days
  body weight, mean ± SE: 370 ± 6 g
[2]; males, 350 mg/kg daily oral, 0 days
  body weight, mean ± SE: 123 ± 8 g
[2]; males, 350 mg/kg daily oral, 21 days
  body weight, mean ± SE: 226 ± 6 g
[2]; males, 350 mg/kg daily oral, 45 days
  body weight, mean ± SE: 290 ± 7 g
[2]; males, 350 mg/kg daily oral, 60 days
  body weight, mean ± SE: 368 ± 4 g
[2]; males, 1400 mg/kg daily oral, 0 days
  body weight, mean ± SE: 121 ± 5 g
[2]; males, 1400 mg/kg daily oral, 21 days
  body weight, mean ± SE: 222 ± 7 g
[2]; males, 1400 mg/kg daily oral, 45 days
  body weight, mean ± SE: 295 ± 8 g
[2]; males, 1400 mg/kg daily oral, 60 days
  body weight, mean ± SE: 365 ± 9 g
[2]; rats, exception: Bromhexine 1000 mg/kg/day
  variations in the body weights versus control group: no significant variations
[3]; females
  RBC, mean ± SE: 817 ± 58 10^6 /ml
  WBC, mean ± SE: 179 ± 26 10^2 /ml
[3]; males
  RBC, mean ± SE: 657 ± 60 10^6 /ml
  WBC, mean ± SE: 140 ± 10 10^2 /ml
[4]; females
  A/G ratio (Albumin/Globulin), mean ± SE: 2.6 ± 0.3
  BUN, mean ± SE: 41.1 ± 2 mg %
  GLUCOSE, mean ± SE: 85.9 ± 8 mg %
  SGOT, mean ± SE: 25.1 ± 0.3 Units/ml
  SGPT, mean ± SE: 13.2 ± 0.4 Units/ml
  TOTAL PROTEIN, mean ± SE: 30.6 ± 2.4 mg/mL
[4]; males
  A/G ratio (Albumin/Globulin), mean ± SE: 2.2 ± 0.1
  BUN, mean ± SE: 39.9 ± 5 mg %
  GLUCOSE, mean ± SE: 73.7 ± 5 mg %
  SGOT, mean ± SE: 24.5 ± 0.6 Units/ml
  SGPT, mean ± SE: 13.1 ± 0.7 Units/ml
  TOTAL PROTEIN, mean ± SE: 28.2 ± 2.1 mg/mL
[5]; X^2 = 0.43, N.S.
  % showing BSP plasma levels >160 mcg/ml: 5.5%
  rats showing BSP plasma levels >160 mcg/ml, number/tested: 1/18
[5]; X^2 = 0.7, N.S.
  % showing BSP plasma levels >80 mcg/ml: 28%
  rats showing BSP plasma levels >80 mcg/ml, number/tested: 5/18
[6]; females
  organ weight, Adrenal glands: 4.6 ± 0.1 10^-2 grams
  organ weight, Brain: 19.4 ± 1 10^-1 grams
  organ weight, Heart: 7.3 ± 0.8 10^-1 grams
  organ weight, Kidneys: 18.2 ± 0.4 10^-1 grams
  organ weight, Liver: 10.1 ± 0.3 grams
  organ weight, Lungs: 14.2 ± 1.1 10^-1 grams
  organ weight, Spleen: 6.5 ± 0.2 10^-1 grams
[6]; males
  organ weight, Adrenal glands: 3.7 ± 0.5 10^-2 grams
  organ weight, Brain: 13.4 ± 0.4 10^-1 grams
  organ weight, Heart: 7.1 ± 0.4 10^-1 grams
  organ weight, Kidneys: 18.3 ± 0.4 10^-1 grams
  organ weight, Liver: 9.7 ± 0.9 grams
  organ weight, Lungs: 9.1 ± 0.8 10^-1 grams
  organ weight, Spleen: 6.3 ± 0.3 10^-1 grams
[7]; rat, in vivo
  animals that died during the study: 2 animals
  changes in general state of health, behaviour, body weight, blood and viscera: no significant changes
  long-term toxicity in the rats: weak
[7]; rats, subacute and long-term administration
  toxicity compared with Bromhexine (parent compound): less toxic than Bromhexine; also recorded: less toxic than the parent compound
[8]
  Siegmund Test, number of writhings for a 20 min. period, mean ± SE: 34 ± 3
[9]
  Hot-plate Test (R max/Ro), mean ± SE: 1.62 ± 0.26
[10]
  ED50: 298 mg/kg
[11]
  ED50: 189 mg/kg
noci-ceptive stimuli
  Responses to algogenic stimuli: not suppressed
